Data reported in patent publication US20080269325A1, “Methods to Relieve Pain” (Imperial Innovations Limited, priority 2004, published 2008).

Assays:
[1] = system: formalin-evoked pain in the rat; experiment: Formalin test (CPS-WST(0,1,2) pain score); type: in vivo
Protocol: All experiments conformed with British Home Office regulations. Male Wistar rats weighing 230-290 g were obtained from B&K. Animals were housed in group cages and maintained on a 12-hour light-dark cycle with ad libitum access to food and water. Each animal was used in one experiment only.
L-29 was a gift from D Lambert (see FIG. 1 for chemical structure). SR1 and SR2 were a gift from Sanofi and capsazepine was purchased from Tocris. All drugs were dissolved in 40% dimethyl sulphoxide (DMSO) and saline.
Rats were randomised into seven groups. Investigator JB carried out the dosing of the animals to conform with Home Office regulations, while investigator HJ carried out all other duties including scoring the behavioural test, she was blinded to the drugs given. All animals were acclimatised to the testing environment for at least 30 min prior to the experiment beginning. Each animal received a first intraperitoneal (i.p.) injection of either vehicle or antagonist and five minutes later a second i.p. injection of either vehicle or L-29. […] 10 min later all the animals received a formalin injection.
50 μl of 2.5% formalin was injected subcutaneously into the dorsum of the right hind paw via a 27G needle. The paw was then marked with permanent ink. The animal was immediately replaced in the observation chamber, a clear plexiglass box measuring 23 cm×18 cm×14 cm, with a mirror positioned underneath at 45° to allow an unobstructed view of the paw. Observations began as the rats were placed in the box and continued for 60 min. Their behaviour was rated according to the Composite Pain Score, Weighted Scores Technique (CPS-WST (0,1,2)), a validated pain behaviour scoring system for the rat formalin test (Watson et al 1997). The amount of time spent in each of 2 behavioural categories was measured for each consecutive 5 min period within the hour scored. Category 1, the injected paw is elevated and not in contact with any surface and category 2, the injected paw is licked, bitten or shaken. A weighted score was then obtained for each 5 min period and for phase 1 (0-15 min) and phase 2 (15-60 min), by using the formula below:
CPS-WST=(1×time in category 1)+(2×time spent in category 2)
Data was analysed using the one-way ANOVA test followed by Dunnett's test using the SigmaStat 2.3 computer package.

[2] = system: rats rendered neuropathic by partial sciatic nerve ligation; experiment: Cold allodynia (acetone drop), partial sciatic nerve ligation model; type: in vivo, rat; details: for positive response to cold stimulus (declined from 100%): between 40-60 minutes post drug
[3] = molecular target: T1, CB1 receptors (Homo sapiens, UniProt P21554); experiment: Displacement of [3H]-CP55,940 from a cell line transfected with CB1 receptors; type: binding; details: concentration of 10 μM
T1 construct: expressed in transfected cells
Protocol: (§1) The FAAH inhibitory compound that we are investigating is an analogue of PEA called palmitoylallylamide (L-29). It was developed by Dr Didier Lambert and team at the Unité de Chimie pharmaceutique et de Radiopharmacie, Universite catholique de Louvain, Brussels, Belgium. The capacity of L-29 to inhibit FAAH was calculated by measuring the ability of the compound to inhibit FAAH catalysed [^3H]-AEA hydrolysis (maximum inhibition and pI50 calculated). […] Binding to CB1 and CB2 receptors was also calculated by measuring the displacement of radioactive [^3H]-CP55,940 from a cell line transfected with CB1 receptors and radioactive [^3H]-WIN55,212-2 from a cell line transfected with CB2 receptors.

[4] = molecular target: T2, FAAH (Rattus norvegicus, UniProt P97612); experiment: Inhibition of FAAH catalysed [3H]-AEA hydrolysis; type: biochemical; details: for IC50: FAAH catalysed [3H]-AEA hydrolysis, read-out: pI50 (converted)
T2 sequence (P97612 1-579): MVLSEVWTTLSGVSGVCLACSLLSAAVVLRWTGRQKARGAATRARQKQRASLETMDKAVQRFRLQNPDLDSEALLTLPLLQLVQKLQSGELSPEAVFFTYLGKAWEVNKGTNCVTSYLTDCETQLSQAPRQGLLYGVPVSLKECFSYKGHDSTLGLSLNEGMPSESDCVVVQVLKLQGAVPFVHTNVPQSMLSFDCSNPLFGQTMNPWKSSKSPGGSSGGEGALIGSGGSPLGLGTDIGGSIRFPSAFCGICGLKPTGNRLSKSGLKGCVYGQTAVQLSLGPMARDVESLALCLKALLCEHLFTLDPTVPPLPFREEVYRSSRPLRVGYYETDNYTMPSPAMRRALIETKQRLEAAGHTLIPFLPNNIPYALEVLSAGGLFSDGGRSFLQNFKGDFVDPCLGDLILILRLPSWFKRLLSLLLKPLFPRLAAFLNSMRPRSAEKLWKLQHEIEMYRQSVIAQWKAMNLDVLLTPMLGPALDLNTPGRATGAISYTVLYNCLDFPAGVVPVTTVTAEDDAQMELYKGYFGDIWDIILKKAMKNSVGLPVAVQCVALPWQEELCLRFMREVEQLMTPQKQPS
Protocol: as §1

[5] = molecular target: T3, CB2 receptors (Homo sapiens, UniProt P34972); experiment: Displacement of [3H]-WIN55,212-2 from a cell line transfected with CB2 receptors; type: binding; details: concentration of 10 μM
T3 construct: expressed in transfected cells
Protocol: as §1

[6] = system: rats rendered neuropathic by partial sciatic nerve ligation; experiment: Thermal hyperalgesia (Hargreaves' device), partial sciatic nerve ligation model; type: in vivo, rat
Protocol: (§2) Male Wistar rats, weighing 250-350 g (mean 300 g) were housed at a constant temperature under a 14:10 light/dark cycle, with free access to food and water.
(§3) The animals were randomised into four experimental groups, with six animals in each group:
(§4) Group B. L-29 in a DMSO Vehicle in Three i.p. Doses: 0.1 mgkg^−1, 1 mgkg^−1, 10 mgkg^−1
(§5) In this study, six animals were allocated to each dose group and baseline limb withdrawal thresholds were recorded for each animal at t=0. This was immediately followed by the ip. administration of L-29 solution.
(§6) Limb withdrawal thresholds to all three modalities were recorded at t=0. Each animal then received i.p. injection of the antagonist in a 40% DMSO and saline solution, immediately followed by the administration of L-29 at a dose of 1 mgkg^−1 via the same route. Sensory testing resumed and limb withdrawal thresholds were recorded over the course of the experiment as described.
(§7) Following the original description for partial sciatic nerve ligation by Seltzer et al.^2, surgery was performed in equal number. Under inhalational anaesthesia using isoflurane and nitrous oxide, the left sciatic nerve was exposed at upper-thigh level and the dorsal third—half of the sciatic nerve tightly ligated with a 7-0 silk suture at a site just distal to the point at which the posterior biceps semitendinosus nerve branches off the sciatic nerve. Haemostasis was confirmed and the wound then closed with muscle and skin sutures and a small volume of 0.5% bupivicaine administered subcutaneously. A strict aseptic technique was maintained throughout. The animal was then recovered and returned to its housing environment and a post-operative check conducted the following day. See FIG. 12 for full description and protocol.
Behavioural tests included simple reflex withdrawal to mechanical, thermal and cold stimuli. […] Baseline sensory thresholds were measured pre-operatively on the day of surgery and on post-operative day eight. […] Sensory thresholds were recorded at time (t) 0, 20, 40, 60 and 80 minutes post drug administration.
Thermal hyperalgesia is assessed using a noxious infrared heat stimulus applied to the plantar surface of both hind paws as described by Hargreaves et al.^4 Paw withdrawal thresholds to a focused beam of radiant heat at a constant temperature of 46° C. and infrared intensity (of twenty for rats and thirty for mice) is measured. […] Sampling is repeated five times to each paw with three minutes between testing and a mean withdrawal threshold is calculated.
(§8) Statistical significance was determined for neuropathy by the paired t-test and for drug effects by the one-way ANOVA (Dunnett's test) (compared to post-operative values), both taking p<0.05 as statistically significant.

[7] = system: rats rendered neuropathic by partial sciatic nerve ligation; experiment: Mechanical allodynia (electronic von Frey), partial sciatic nerve ligation model; type: in vivo, rat
Protocol: as §2, §3, §4, §5, §6, §7
Behavioural tests included simple reflex withdrawal to mechanical, thermal and cold stimuli. Before commencing experiments, animals were allowed to acclimatise to the testing environment for at least 15 minutes until exploratory behaviour had ceased. In order to minimise bias, the experiment to be conducted was randomised (according to a predetermined random number table—see table 2) on the day of testing and the drug doses were drawn up and given by a separate investigator to the one scoring the behavioural tests who was blinded to the drugs given. Baseline sensory thresholds were measured pre-operatively on the day of surgery and on post-operative day eight. […] Sensory thresholds were recorded at time (t) 0, 20, 40, 60 and 80 minutes post drug administration. […]
as §8

[8] = system: WIN2 induced catalepsy; details: 1 mg/kg i.p.; cited from earlier work
[9] = antagonist 1 mgkg^−1 i.p. + L-29 1 mgkg^−1 i.p.

T1 sequence (P21554 whole entry): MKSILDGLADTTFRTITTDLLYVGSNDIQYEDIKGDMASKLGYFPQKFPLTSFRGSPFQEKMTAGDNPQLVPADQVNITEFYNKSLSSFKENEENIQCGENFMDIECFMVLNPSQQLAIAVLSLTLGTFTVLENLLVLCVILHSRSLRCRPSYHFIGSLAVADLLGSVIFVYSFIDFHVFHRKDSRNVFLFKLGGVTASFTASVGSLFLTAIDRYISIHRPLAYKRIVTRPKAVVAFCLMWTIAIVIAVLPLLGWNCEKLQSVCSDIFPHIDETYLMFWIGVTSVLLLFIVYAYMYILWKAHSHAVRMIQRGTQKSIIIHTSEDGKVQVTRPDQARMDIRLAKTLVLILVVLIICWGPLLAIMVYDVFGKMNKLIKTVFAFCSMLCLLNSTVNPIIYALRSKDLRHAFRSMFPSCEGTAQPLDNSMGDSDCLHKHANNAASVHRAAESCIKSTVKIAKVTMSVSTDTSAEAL
T3 sequence (P34972 whole entry): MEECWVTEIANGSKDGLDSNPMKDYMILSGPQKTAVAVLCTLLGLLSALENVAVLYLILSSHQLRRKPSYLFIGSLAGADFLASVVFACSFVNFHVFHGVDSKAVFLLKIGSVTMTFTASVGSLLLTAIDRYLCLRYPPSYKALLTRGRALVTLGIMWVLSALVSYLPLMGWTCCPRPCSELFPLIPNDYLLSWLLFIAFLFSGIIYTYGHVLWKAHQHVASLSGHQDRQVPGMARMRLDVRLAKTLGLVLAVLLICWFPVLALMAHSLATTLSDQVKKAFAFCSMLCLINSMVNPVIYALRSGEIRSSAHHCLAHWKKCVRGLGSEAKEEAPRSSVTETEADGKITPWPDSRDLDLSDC

Q: Which “pain behaviour v control” value ([1]; 0.1 mg/kg i.p.) does the source give for `C=CCNC(=O)CCCCCCCCCCCCCCC` [L-29, N-(2-propenyl)hexadecanamide] here?
A: not significantly different from control

Q: And the “pain behaviour v control (P<0.05)” value ([1]; 1 mg/kg i.p.)?
A: significantly attenuated pain behaviour

Q: And the “pain behaviour v control (P<0.05)” value ([1]; 10 mg/kg i.p.)?
A: significantly attenuated pain behaviour

Q: What about the “pain behaviour in both phases of the formalin test” value ([1]; 0.1, 1 and 10 mg/kg i.p., 10 min before 2.5% formalin s.c.) of the same compound?
A: dose-dependently inhibited

Q: What about the “decline in positive response to cold stimulus” value ([2]; 0.1 mgkg^−1 i.p., between 20-40 minutes) of the same compound?
A: decline by almost half

Q: What about the “positive response to cold stimulus (declined from 100%)” value ([2]; 1 mgkg^−1 i.p.) of the same compound?
A: 50%

Q: And the “positive response to cold stimulus (declined from 100%)” value ([2]; 10 mgkg^−1 i.p.)?
A: 50%

Q: And the “reversal of cold allodynia” value ([2]; all doses (0.1, 1, 10 mgkg^−1 i.p.))?
A: did not yield a statistically significant reversal of cold allodynia

Q: And the “displacement of [3H]-CP55,940 in the CB1 assay” value [3]?
A: 13.3%

Q: And the “maximum inhibition of FAAH catalysed [3H]-AEA hydrolysis” value [4]?
A: 67%

Q: And the IC50 [4]?
A: 3.39 µM

Q: What about the “displacement of [3H]-WIN55,212-2 in the CB2 assay” value [5] of the same compound?
A: 7.8%

Q: What about the “attenuation of thermal hyperalgesia” value ([6]; 0.1 mgkg^−1 i.p.) of the same compound?
A: only at 40 minutes

Q: What about the “attenuation of thermal hyperalgesia” value ([6]; 1 mgkg^−1 i.p.) of the same compound?
A: attenuated later between 40 and 60 minutes post drug injection

Q: What about the “attenuation of thermal hyperalgesia” value ([6]; 10 mgkg^−1 i.p., between 20 and 60 minutes post drug) of the same compound?
A: Attenuation of thermal hyperalgesia was greatest

Q: And the “reversal of mechanical allodynia” value ([7]; 0.1 mgkg^−1 i.p.)?
A: only at 80 minutes post i.p drug administration

Q: What about the “reversal of mechanical allodynia (mechanical sensory thresholds)” value ([7]; 1 mgkg^−1 i.p., at 20 minutes and 60 minutes post drug) of the same compound?
A: significant increase in mechanical sensory thresholds

Q: And the “reversal of mechanical allodynia” value ([7]; 10 mgkg^−1 i.p.)?
A: No effect on mechanical allodynia

Q: Which “displacement of [3H]-CP55,940 in the CB1 assay” value [3] does the source give for `CCCCCCCCCCCCCCCC(=O)NCCO` [PEA, Palmitoylethanolamide, reference compound] here?
A: 23.8%

Q: What about the “maximum inhibition of FAAH catalysed [3H]-AEA hydrolysis” value [4] of the same compound?
A: 78%

Q: What about the IC50 [4] of the same compound?
A: 5.01 µM

Q: What about the “displacement of [3H]-WIN55,212-2 in the CB2 assay” value [5] of the same compound?
A: 13.9%

Q: With `Cc1c(C(=O)NN2CCCCC2)nn(-c2ccc(Cl)cc2Cl)c1-c1ccc(Cl)cc1` [SR1, reference compound] as the compound, how does the “effect of receptor antagonist on antinociceptive effect of L-29” value ([1]; phase 2 (15-60 min), antagonist 1 mg/kg i.p. prior to 1 mg/kg L-29) read?
A: reverses the antinociceptive effect of L-29

Q: And the “cold allodynia on co-administration of antagonist and L-29” value [2, 9]?
A: significant reduction in % positive response to cold stimulus

Q: And the “time to significant antagonism of WIN2 induced catalepsy” value [8]?
A: ≤ 15 min

Q: And the “effect of co-administered antagonist on anti-hyperalgesic effect of L-29 (thermal)” value [6, 9]?
A: appeared not to prevent the anti-hyperalgesic and anti-allodynic effects

Q: And the “effect of co-administered antagonist on anti-allodynic effect of L-29 (mechanical)” value [7, 9]?
A: appeared not to prevent the anti-hyperalgesic and anti-allodynic effects

Q: Which “effect of receptor antagonist on antinociceptive effect of L-29” value ([1]; either phase, SR2 1 mg/kg or capsazepine 10 mg/kg i.p. prior to 1 mg/kg L-29) does the source give for `Oc1cc2c(cc1O)CN(C(=S)NCCc1ccc(Cl)cc1)CCC2` [capsazepine, reference compound] here?
A: do not significantly reverse the antinociceptive effect of L-29
